≈ marks a conversion by molar mass, not a printed value. Where “and” joins values, the source holds several entries; their conditions need not be identical. Equal entries are not always repeated.
Key:
Neisseria gonorrhoeae = test: MIC, microbroth dilution, G77L medium; type: cell-based; settings: Neisseria gonorrhoeae ATCC 49226; source data, individual replicates
HeLa cells [1] = test: Mammalian cell cytotoxicity (CC50); type: cell-based, human; settings: HeLa, replicates
Description: The half maximal cytotoxic concentration (CC50) of each compound against HeLa cells (ATCC CCL-2) was measured as previously described. […] The mean values for each biological replicate were averaged, and the CC50 was determined using a 4-parameter nonlinear curve fitting algorithm (GraphPad Prism). The average of the CC50s from two biological replicates was calculated and reported.

[2] = Liver microsome stability, murine; type: in vitro ADME, mouse; settings: for Average MLMS t½ / MLMS t½: murine liver microsomes; for Average MLMS t½: average of replicates; for MLMS t½: individual replicates
Description: To examine potential for first-pass metabolism of analogs in the liver, the stability of analogs in the presence of liver microsome preparations (Eurofins Discovery for human, dog and rat; Xenotech for mouse) was measured using the method of Kuhnz, et al.[50]. for murine studies and Oback for the dog, human and rat studies. The amount of parent compound remaining after incubation with microsomes in the presence of NADPH over a 30 min time range was measured using a reverse-phase liquid chromatography/mass spectroscopy method that was customized for each compound. Half-lives were calculated using linear regression analysis of several time points.

[3] = Aqueous solubility (nephelometric); type: physicochemical; settings: for Solubility: single replicates
Escherichia coli = test: microbe, parasite or virus in culture; type: cell-based; settings: E. coli KLE701 (ΔtolC::tet); source data, individual replicates
HeLa cells [4] = test: Mammalian cell cytotoxicity (CC50); type: cell-based, human; settings: one value per replicate

Row | SMILES | MIC (Neisseria gonorrhoeae) | NORMALIZED DATA (Fraction DMSO Control) (HeLa cells [1]; [CMPD] 0.78125 µM) | NORMALIZED DATA (Fraction DMSO Control) (HeLa cells [1]; [CMPD] 1.5625 µM) | NORMALIZED DATA (Fraction DMSO Control) (HeLa cells [1]; [CMPD] 3.125 µM) | NORMALIZED DATA (Fraction DMSO Control) (HeLa cells [1]; [CMPD] 6.25 µM) | NORMALIZED DATA (Fraction DMSO Control) (HeLa cells [1]; [CMPD] 12.5 µM) | NORMALIZED DATA (Fraction DMSO Control) (HeLa cells [1]; [CMPD] 25 µM) | NORMALIZED DATA (Fraction DMSO Control) (HeLa cells [1]; [CMPD] 50 µM) | NORMALIZED DATA (Fraction DMSO Control) (HeLa cells [1]; [CMPD] 100 µM) | Average MLMS t½ [2] [min] | MLMS t½ [2] | Average solubility [3] [µM] | Solubility [3] [µM] | MIC (Escherichia coli) | CC50 (HeLa cells [4]) [µM] | liver microsome stability (in words) [2]
1 | O=C(Nc1nnc(-c2ccc(F)cc2)o1)C1CCCCC1 [MBX-3709] | 7.233 µg/mL and 3.616 µg/mL | 0.9843 Fraction DMSO Control and 0.9839 Fraction DMSO Control and 1.011 Fraction DMSO Control and 0.9844 Fraction DMSO Control and 1.002 Fraction DMSO Control and 0.9797 Fraction DMSO Control | 1.013 Fraction DMSO Control and 1.069 Fraction DMSO Control and 1.052 Fraction DMSO Control and 1.032 Fraction DMSO Control and 1.012 Fraction DMSO Control and 1.033 Fraction DMSO Control | 1.017 Fraction DMSO Control and 1.012 Fraction DMSO Control and 1.028 Fraction DMSO Control and 1.006 Fraction DMSO Control and 0.9958 Fraction DMSO Control and 1.035 Fraction DMSO Control | 0.9952 Fraction DMSO Control and 1.018 Fraction DMSO Control and 1.016 Fraction DMSO Control and 1.009 Fraction DMSO Control and 1.013 Fraction DMSO Control and 1.001 Fraction DMSO Control | 1.025 Fraction DMSO Control and 1.013 Fraction DMSO Control and 1.022 Fraction DMSO Control and 1.004 Fraction DMSO Control and 1.002 Fraction DMSO Control and 1.0412 Fraction DMSO Control | 1.006 Fraction DMSO Control and 1.033 Fraction DMSO Control and 1.009 Fraction DMSO Control and 1.014 Fraction DMSO Control and 0.9855 Fraction DMSO Control and 1.046 Fraction DMSO Control | 0.7814 Fraction DMSO Control and 0.7858 Fraction DMSO Control and 0.7422 Fraction DMSO Control and 0.8088 Fraction DMSO Control and 0.7466 Fraction DMSO Control and 0.7859 Fraction DMSO Control | 0.7348 Fraction DMSO Control and 0.7441 Fraction DMSO Control and 0.7211 Fraction DMSO Control and 0.7931 Fraction DMSO Control and 0.7717 Fraction DMSO Control and 0.7681 Fraction DMSO Control | <5 | <5 min | 25 | 25 (≈ 7.23 µg/mL) | 28.931 µg/mL (≈ 100 µM) | ≥ 100 | 
2 | O=C(Nc1nnc(-c2ccc(F)cc2)o1)N1CCCCCC1 [MBX-4700] | 0.951 µg/mL and 0.4755 µg/mL | 1.19 Fraction DMSO Control and 0.9349 Fraction DMSO Control and 0.9879 Fraction DMSO Control | 1.113 Fraction DMSO Control and 0.9447 Fraction DMSO Control and 0.9899 Fraction DMSO Control | 1.151 Fraction DMSO Control and 1.008 Fraction DMSO Control and 1.078 Fraction DMSO Control | 0.9458 Fraction DMSO Control and 0.9081 Fraction DMSO Control and 0.9843 Fraction DMSO Control | 0.7537 Fraction DMSO Control and 0.7467 Fraction DMSO Control and 0.8509 Fraction DMSO Control | 0.8669 Fraction DMSO Control and 0.6852 Fraction DMSO Control and 0.8634 Fraction DMSO Control | 0.8891 Fraction DMSO Control and 0.7812 Fraction DMSO Control and 0.7745 Fraction DMSO Control | 0.8207 Fraction DMSO Control and 0.7165 Fraction DMSO Control and 0.6953 Fraction DMSO Control | 19 | 16.8 min and 21.8 min | 25 | 25 (≈ 7.61 µg/mL) | 3.804 µg/mL and 7.608 µg/mL | ≥ 100 | 
3 | O=C(Nc1nnc(-c2ccc(F)cc2)o1)N1CCCCC1 [MBX-4699] | 0.9072 µg/mL (≈ 3.13 µM) | 1.206 Fraction DMSO Control and 0.9471 Fraction DMSO Control and 1 Fraction DMSO Control | 1.141 Fraction DMSO Control and 0.9447 Fraction DMSO Control and 0.9657 Fraction DMSO Control | 1.163 Fraction DMSO Control and 1.061 Fraction DMSO Control and 1.0891 Fraction DMSO Control | 1.089 Fraction DMSO Control and 1.109 Fraction DMSO Control and 1.081 Fraction DMSO Control | 0.7963 Fraction DMSO Control and 0.7071 Fraction DMSO Control and 0.8639 Fraction DMSO Control | 0.8798 Fraction DMSO Control and 0.8258 Fraction DMSO Control and 0.8774 Fraction DMSO Control | 0.9431 Fraction DMSO Control and 0.7958 Fraction DMSO Control and 0.7843 Fraction DMSO Control | 0.7918 Fraction DMSO Control and 0.6844 Fraction DMSO Control and 0.6971 Fraction DMSO Control | 12 | 10.1 min and 13.2 min | 50 | 50 (≈ 14.5 µg/mL) | 7.257 µg/mL (≈ 25 µM) | ≥ 100 | 
4 | O=C(Nc1nnc(-c2ccc(F)cc2)o1)N1CCCC1 [MBX-4346] | 3.453 µg/mL (≈ 12.5 µM) | 1.217 Fraction DMSO Control and 0.9631 Fraction DMSO Control and 1.029 Fraction DMSO Control | 1.148 Fraction DMSO Control and 0.9904 Fraction DMSO Control and 1.014 Fraction DMSO Control | 1.14 Fraction DMSO Control and 1.021 Fraction DMSO Control and 1.0883 Fraction DMSO Control | 1.122 Fraction DMSO Control and 0.9837 Fraction DMSO Control and 1.041 Fraction DMSO Control | 1.103 Fraction DMSO Control and 1.043 Fraction DMSO Control and 1.0247 Fraction DMSO Control | 1.033 Fraction DMSO Control and 0.9838 Fraction DMSO Control and 0.9917 Fraction DMSO Control | 0.972 Fraction DMSO Control and 0.8011 Fraction DMSO Control and 0.809 Fraction DMSO Control | 0.8767 Fraction DMSO Control and 0.7312 Fraction DMSO Control and 0.7411 Fraction DMSO Control | 25 | 30.1 min and 20.5 min | >200 | >200 | 27.6271 µg/mL (≈ 100 µM) | ≥ 100 | limited

Reference: article PMC7979765, “trans-Translation inhibitors bind to a novel site on the ribosome and clear Neisseria gonorrhoeae in vivo” (Nature Communications, 2021)
